The text below walks through data of patent publication US6521623B1, “N,N'-disubstituted benzimidazolone derivatives with affinity at the serotonin and dopamine receptors” (Boehringer Ingelheim Pharma KG, priority 2000, dated 2003).

For assay [1], the target named is T1, 5-HT1A (Homo sapiens, UniProt P08908).
T1 sequence (P08908 1-422): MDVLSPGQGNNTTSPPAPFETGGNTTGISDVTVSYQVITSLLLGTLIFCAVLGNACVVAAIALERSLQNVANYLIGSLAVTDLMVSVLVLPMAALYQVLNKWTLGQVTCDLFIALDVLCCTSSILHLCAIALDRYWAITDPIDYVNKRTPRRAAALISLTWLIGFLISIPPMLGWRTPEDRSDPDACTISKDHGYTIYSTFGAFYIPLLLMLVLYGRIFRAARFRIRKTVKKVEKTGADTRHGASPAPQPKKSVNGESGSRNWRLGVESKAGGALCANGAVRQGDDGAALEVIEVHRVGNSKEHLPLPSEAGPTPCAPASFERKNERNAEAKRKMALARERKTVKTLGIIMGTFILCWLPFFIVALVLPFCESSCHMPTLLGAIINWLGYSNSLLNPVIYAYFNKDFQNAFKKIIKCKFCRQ
Kind of assay: 5-HT1 Functional Assay (cAMP) in CHO/5-HT1A cells. More on the design: expressed in transfected cells; host or cells: CHO/5-HT1A cells. In kind it is cell-based. The protocol:
5-HT1 Functional Assay (cAMP)
CHO/5-HT1A cells were random seeded at a density of about 200,000/well in 24 well plates the day prior to the experiment. On the day of the experiment, cells were pretreated for 15 minutes at 37° C. with 500 μM isobutylmethylxantine (IBMX) dissolved in culture medium without serum. Wells were then divided in different groups in duplicate as follows: control, 10 μM FSK, 10 μM FSK+1 μM 5-HT as positive standard and 10 μM FSK+10 μM of the different compound under evaluation. Sample solutions were added and incubated for additional 15 minutes at 37° C. After incubation, the medium was aspirated and the reaction stopped by adding 200 μl of lysis buffer. Plates were shaken for 5 minutes, then the lysate was removed and samples were stored at 4° C. until the day of the assay. For the cAMP evaluation, samples were properly diluted and the cAMP content was measured by an enzyme immunoassay system.

For assay [2], the target named is 5-HT2A (Mus musculus, UniProt P35363). Kind of assay: 5-HT2 Functional Assay (PI Turnover) in cerebral cortex miniprisms. In kind it is biochemical. As to conditions: 10 μM compound, inhibition of PI turnover accumulation induced by 100 μM 5-HT. As for the experimental part: 5-H T2 Functional Assay (PI Turnover)
5-HT2A (Mus musculus, UniProt P35363), sequence (P35363 whole entry, looked up): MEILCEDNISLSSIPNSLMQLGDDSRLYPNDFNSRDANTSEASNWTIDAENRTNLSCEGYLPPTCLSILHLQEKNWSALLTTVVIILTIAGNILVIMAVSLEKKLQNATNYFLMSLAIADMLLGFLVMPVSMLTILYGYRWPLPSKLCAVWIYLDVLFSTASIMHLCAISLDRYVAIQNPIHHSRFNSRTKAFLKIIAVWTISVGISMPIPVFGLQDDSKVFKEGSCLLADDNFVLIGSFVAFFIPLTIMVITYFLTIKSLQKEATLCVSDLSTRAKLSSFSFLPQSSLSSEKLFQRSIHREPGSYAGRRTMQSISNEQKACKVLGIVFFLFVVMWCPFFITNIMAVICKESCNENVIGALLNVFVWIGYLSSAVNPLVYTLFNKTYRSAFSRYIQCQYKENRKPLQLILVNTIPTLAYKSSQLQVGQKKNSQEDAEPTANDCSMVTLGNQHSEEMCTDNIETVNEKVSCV
Cross-chopped miniprisms (350×350 μm) were prepared from mouse whole cerebral cortices and incubated for 60 minutes at 37° C. in Krebs-Henseleit buffer containing 2 g/l glucose.
Cerebral cortex miniprisms were distributed in vials and incubated for 30 minutes with approximately 170 nM [^3H]-myoinositol (10-20 Ci/mmol) and […] lithium chloride. Samples were divided in different groups in triplicate: control, 100 μM 5-HT, 10 and 30 μM flibanserin+100 μM 5-HT, as standards, and 10 μM of the different compound under investigation+100 μM 5-HT. When 5-HT was added the incubation continued for 45 minutes. Compounds under investigation and flibanserin were added 10 minutes before dispensing 5-HT. Incubation was terminated by the addition of 940 μl chloroform-methanol (1:2 v/v). Further aliquots of chloroform (310 μl) and water (310 μl) were added and labeled inositol phosphates (1 Ps) were extracted from the aqueous phase by ion exchange chromatography using Dowex resin in the formate form. After addition of 10 ml of PicoFluor 40 scintillation cocktail (Packard), the radioactivity present in an aliquot (400 μl) of the aqueous extract was counted by liquid scintillation spectrometry.

The target in assay [3] is T2, 5-HT2A (Rattus norvegicus, UniProt P14842).
T2 construct: Cerebral frontal cortex was homogenized in 10 volumes of ice cold 0.32 M sucrose; from tissue; host or cells: rat cerebral frontal cortex membranes
T2 sequence (P14842 whole entry): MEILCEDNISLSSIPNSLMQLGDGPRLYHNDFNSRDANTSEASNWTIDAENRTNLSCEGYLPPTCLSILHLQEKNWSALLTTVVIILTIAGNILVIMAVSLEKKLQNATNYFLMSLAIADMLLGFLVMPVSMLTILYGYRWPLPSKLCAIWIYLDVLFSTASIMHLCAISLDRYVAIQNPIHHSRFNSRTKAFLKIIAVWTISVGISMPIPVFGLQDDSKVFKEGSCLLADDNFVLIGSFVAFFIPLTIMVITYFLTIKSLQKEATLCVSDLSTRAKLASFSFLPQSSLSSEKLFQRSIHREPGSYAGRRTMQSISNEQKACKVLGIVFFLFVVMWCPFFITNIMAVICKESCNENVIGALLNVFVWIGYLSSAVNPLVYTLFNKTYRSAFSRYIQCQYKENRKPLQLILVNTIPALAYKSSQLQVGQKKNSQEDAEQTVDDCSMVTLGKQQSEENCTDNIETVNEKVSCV
Kind of assay: 5-HT2A Radioligand Receptor Binding Assay ([3H]-Ketanserin, cerebral frontal cortex membranes). As to conditions: 0.5 nM [3H]-Ketanserin. The protocol: 5-HT2A Radioligand Receptor Binding Assay
Rats (male Sprague-Dawley, 200-250 g) were used. Cerebral frontal cortex was homogenized in 10 volumes of ice cold 0.32 M sucrose in 5 mM Tris-HCl ([…]) buffer. After centrifugation of the homogenate (1,000×g for 10 minutes) the supernatant was then recentrifuged at 48,000×g for 15 minutes. The resulting pellet was gently homogenized in an equal volume of 50 mM Tris-HCl buffer (pH 7.4) and incubated at 37° C. for 10 minutes. Membranes were then collected by centrifugation as above described and finally resuspended in 10 volumes of 50 mM Tris-HCl buffer (pH 7.4).
For displacement experiments membranes (980 μl) were diluted in 50 mM Tris-HCl buffer (pH 7.4) to a final concentration of 1:100 (w/v); the tissue suspension was then incubated at 37° C. for 10 minutes in a final volume of 1 ml in the presence of 0.5 nM [^3H]-Ketanserin. Non-specific binding was determined by incubating similar samples with unlabelled methysergide (100 μM). After incubation, samples prepared in a 24 wells cell culture cluster (Costar) were rapidly filtered by Inotech Cell Harvester (IH 201 filters). The filters were washed three times with 2 ml ice-cold Tris-HCl buffer and placed in polyethylene vials, then 4 ml of Filter Count scintillation cocktail (Packard) were added. The radioactivity present was counted by liquid scintillation spectrometry.
The affinity values (IC50) for the compounds were obtained by a nonlinear least squares regression analysis on the basis of a one binding site model.

The target of assay [4] is T1, 5-HT1A. The assay is described as follows: 5HT1A Radioligand Receptor Binding Assay ([3H]-8-OH-DPAT, CHO cell membranes). The arrangement: expressed in transfected cells; host or cells: CHO cells. As to conditions: CHO membranes, human 5-HT1A. The procedure, abridged:
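CHO-cell membranes expressing human 5-HT1A incubated with [3H]-8-OH-DPAT (0.6-0.7 nM) for 60 minutes at 27° C, filtered and scintillation counted; non-specific binding defined with 10^−5 M 5-HT. Compounds tested singly at 10^−7 M as % of control specific binding; IC50 from one-site nonlinear regression.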

Take `CCNC(=O)OCCn1c(=O)n(CCN2CCN(c3cccc(C)c3C)CC2)c2ccccc21` [Compound 215]: in assay [1], the inhibition (in general, the drop in the measured response relative to a control, in per cent) at 10 µM was found to be 83%. The “5-HT2A PI Turnover % inhibition” value in assay [2] is 83%. In addition, the IC50 (in general, the concentration needed to halve the response being measured) in assay [3] came to 3.2 nM; in assay [4] ([3H]-8-OH-DPAT, read-out: 5-HT1A Receptor Binding IC50) it was 0.85 nM. In assay [4] (compound 10^−7 M, singlicate, [3H]-8-OH-DPAT 0.6-0.7 nM), the inhibition at 0.1 µM came to 98%.
